Assay results as given in patent EP4786487A1, “PEPTIDE” (Peptidream Inc, priority 2023, dated 2025).
Starred links: 1 amine or outer side, 2 acyl side, 3 side chain; linkers in the order of their positions; H or OH if unused. Positions of bridges follow the written chain, without caps; N, C: chain ends. Non-standard residues stand in square brackets, D forms with d. Residues, ends and D or L forms follow the SMILES beside them. *: point of attachment. Phe(3-OCH2COOH) = N[C@@H](Cc1cccc(OCC(=O)O)c1)C(=O)O; Phe(4-COOH) = N[C@@H](Cc1ccc(C(=O)O)cc1)C(=O)O; Trp(7-aza) = N[C@@H](Cc1c[nH]c2ncccc12)C(=O)O; Gly(N(CH2)3COOH) = O=C(O)CCCNCC(=O)O; X1 = CCCCCCC[C@H](N[*:1])C(=O)[*:2]; NMeF = CN[C@@H](Cc1ccccc1)C(=O)O; Carboxymethyl = O=C(O)C*; NMeA = CN[C@@H](C)C(=O)O; Sar = CNCC(=O)O

Assays:
Format in all cases: cell-based
Myostatin [1] = target: T1, Myostatin (Homo sapiens, UniProt O14793); assay: Reporter gene assay for myostatin signaling in HepG2 cell line, Evaluation Procedure (1), myostatin inhibition; details: Method A: Myostatin 10 ng/mL; read-out: IC50 (Luciferase) Myostatin HepG2
T1 construct: active myostatin (also called mature myostatin) is a homodimer consisting of two C-terminal growth factor domains; purchased R&D systems 788-G8/CF
T1 sequence (O14793 267-375): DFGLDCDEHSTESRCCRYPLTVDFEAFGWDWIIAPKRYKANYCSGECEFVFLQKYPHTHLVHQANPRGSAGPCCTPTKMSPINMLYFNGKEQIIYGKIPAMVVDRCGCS
In short: (§1)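 HepG2 cells transfected with pGL3(CAGA)12-luciferase reporter, serum-starved in 0.1% BSA medium, then stimulated with myostatin or GDF-11 plus 4-fold peptide dilutions (0.006–100 nmol/L for myostatin, 0.12–2000 nmol/L for GDF-11) for 20–24 h at 37 °C. Luminescence read with One-Glo; IC50 calculated.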

Myostatin [2] = assay: as above; details: Method A; GDF-11 IC50 versus Myostatin IC50
In short: as §1

GDF-11 = target: T2, GDF-11 (Homo sapiens, UniProt O95390); assay: Reporter gene assay for myostatin signaling in HepG2 cell line, Evaluation Procedure (1), GDF-11 inhibition; details: Method A: GDF-11 10 ng/mL; read-out: IC50 (Luciferase) GDF-11 HepG2
T2 construct: purchased R&D systems 1958-GD-G8/CF
T2 sequence (O95390 299-407): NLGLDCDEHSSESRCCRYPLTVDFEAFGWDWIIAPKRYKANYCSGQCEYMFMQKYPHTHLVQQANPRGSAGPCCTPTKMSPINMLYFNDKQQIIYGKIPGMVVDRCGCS
In short: as §1

IC50 (Myostatin [1]) [nM]	IC50 (GDF-11) [nM]	SMILES	Selectivity (Myostatin [2])
16.3	2760	CC[C@H](C)[C@@H]1NC(=O)[C@H](Cc2ccccc2)N(C)C(=O)[C@H](Cc2ccc(O)cc2)NC(=O)[C@H](Cc2c[nH]c3ccccc23)NC(=O)[C@H](C)NC(=O)CN(CCCC(=O)O)C(=O)CSC[C@H](C(=O)O)NC(=O)[C@H](Cc2ccccc2)N(C)C(=O)[C@H](C)N(C)C(=O)[C@H](CC(C)C)NC(=O)[C@H](Cc2ccccc2)N(C)C(=O)[C@H](CCCNC(=N)N)NC(=O)[C@H](Cc2ccc(C(=O)O)cc2)NC(=O)[C@H](Cc2cccc(OCC(=O)O)c2)NC(=O)[C@H](C)N(C)C1=O [Myostatin_99_v144] ({CH2CO}-[Gly(N(CH2)3COOH)]AWY[NMeF]I[NMeA][Phe(3-OCH2COOH)][Phe(4-COOH)]R[NMeF]L[NMeA][NMeF][dC]-OH; thioether N-15)	169
1.5	439	CCCCCCC[C@@H]1NC(=O)[C@H](Cc2ccccc2)N(C)C(=O)[C@H](CCCNC(=N)N)NC(=O)[C@H](Cc2ccc(C(=O)O)cc2)NC(=O)[C@H](Cc2cccc(OCC(=O)O)c2)NC(=O)[C@H](C)N(C)C(=O)[C@H]([C@@H](C)CC)NC(=O)[C@H](Cc2ccccc2)N(C)C(=O)[C@H](Cc2ccc(O)cc2)NC(=O)[C@H](Cc2c[nH]c3ncccc23)NC(=O)[C@H](C)NC(=O)CN(CCCC(=O)O)C(=O)CSC[C@H](C(=O)O)NC(=O)[C@H](Cc2ccccc2)N(C)C(=O)[C@H](C)N(C)C1=O [Myostatin_99_v148] ({CH2CO}-[Gly(N(CH2)3COOH)]A[Trp(7-aza)]Y[NMeF]I[NMeA][Phe(3-OCH2COOH)][Phe(4-COOH)]R[NMeF][X1][NMeA][NMeF][dC]-OH; thioether N-15)	293
1.7	395	CCCCCCC[C@@H]1NC(=O)[C@H](Cc2ccccc2)N(C)C(=O)[C@H](CCCNC(=N)N)NC(=O)[C@H](Cc2ccc(OCC(=O)O)cc2)NC(=O)[C@H](Cc2cccc(OCC(=O)O)c2)NC(=O)[C@H](C)N(C)C(=O)[C@H]([C@@H](C)CC)NC(=O)[C@H](Cc2ccccc2)N(C)C(=O)[C@H](Cc2ccc(O)cc2)NC(=O)[C@H](Cc2c[nH]c3ccccc23)NC(=O)[C@H](C)NC(=O)CN(CCCC(=O)O)C(=O)CSC[C@H](C(=O)O)NC(=O)[C@H](Cc2ccccc2)N(C)C(=O)[C@H](C)N(C)C1=O [Myostatin_99_v150] ({CH2CO}-[Gly(N(CH2)3COOH)]AWY[NMeF]I[NMeA][Phe(3-OCH2COOH)]Y(Carboxymethyl)R[NMeF][X1][NMeA][NMeF][dC]-OH; thioether N-15)	232
1.2	267	CCCCCCC[C@@H]1NC(=O)[C@H](Cc2ccccc2)N(C)C(=O)[C@H](CCCNC(=N)N)NC(=O)[C@H](Cc2ccc(OCC(=O)O)cc2)NC(=O)[C@H](Cc2cccc(OCC(=O)O)c2)NC(=O)[C@H](C)N(C)C(=O)[C@H]([C@@H](C)CC)NC(=O)[C@H](Cc2ccccc2)N(C)C(=O)[C@H](Cc2ccc(O)cc2)NC(=O)[C@H](Cc2c[nH]c3ncccc23)NC(=O)[C@H](C)NC(=O)CN(CCCC(=O)O)C(=O)CSC[C@H](C(=O)O)NC(=O)[C@H](Cc2ccccc2)N(C)C(=O)[C@H](C)N(C)C1=O [Myostatin_99_v153] ({CH2CO}-[Gly(N(CH2)3COOH)]A[Trp(7-aza)]Y[NMeF]I[NMeA][Phe(3-OCH2COOH)]Y(Carboxymethyl)R[NMeF][X1][NMeA][NMeF][dC]-OH; thioether N-15)	222
69	4810	CC[C@H](C)[C@@H]1NC(=O)[C@H](Cc2ccccc2)N(C)C(=O)[C@H](Cc2ccc(O)cc2)NC(=O)[C@H](Cc2c[nH]c3ccccc23)NC(=O)[C@H](C)NC(=O)CN(CCCC(=O)O)C(=O)CSC[C@H](C(=O)O)NC(=O)[C@H](Cc2ccccc2)N(C)C(=O)[C@H](C)N(C)C(=O)[C@H](CC(C)C)NC(=O)[C@H](Cc2ccccc2)N(C)C(=O)[C@H](CCCNC(=N)N)NC(=O)[C@H](Cc2ccc(C(=O)O)cc2)NC(=O)[C@H](Cc2cccc(OCC(=O)O)c2)NC(=O)CN(C)C1=O [Myostatin_99_v156] ({CH2CO}-[Gly(N(CH2)3COOH)]AWY[NMeF]I[Sar][Phe(3-OCH2COOH)][Phe(4-COOH)]R[NMeF]L[NMeA][NMeF][dC]-OH; thioether N-15)	70
